Test results: patent publication US12527739B2 (Alcon Inc., priority 2022, dated 2026)

Tests used:
[1] = Solubility of benzyl atropine in surfactants (single excipients); format: physicochemical
Description: Initially, single excipients were evaluated (Table 8).

[2] = molecular target: T1, M4 muscarinic receptor (Homo sapiens, UniProt P08173); test: Muscarinic receptor radioligand displacement binding, M4
T1 sequence (P08173 1-479): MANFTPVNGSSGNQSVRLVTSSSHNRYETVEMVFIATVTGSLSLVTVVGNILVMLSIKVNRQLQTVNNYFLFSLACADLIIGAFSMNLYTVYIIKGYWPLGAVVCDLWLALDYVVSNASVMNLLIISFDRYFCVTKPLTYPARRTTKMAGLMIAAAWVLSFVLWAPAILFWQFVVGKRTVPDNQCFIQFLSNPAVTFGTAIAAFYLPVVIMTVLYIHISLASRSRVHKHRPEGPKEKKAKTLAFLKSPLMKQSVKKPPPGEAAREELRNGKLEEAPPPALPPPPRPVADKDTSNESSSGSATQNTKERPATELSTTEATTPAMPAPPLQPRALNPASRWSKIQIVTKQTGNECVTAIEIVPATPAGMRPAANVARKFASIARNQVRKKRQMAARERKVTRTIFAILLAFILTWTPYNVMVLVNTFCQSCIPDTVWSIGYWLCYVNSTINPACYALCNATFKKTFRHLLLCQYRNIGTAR

[3] = Concentration of benzyl atropine in freshly prepared simplified formulations; format: physicochemical
Text: Considerable efforts were made to simplify the formulation to reduce the overall amount of surfactants (Table 11).
The combination of two different species of surfactant was unexpected. […] The efficacy of this “double-buffered” vehicle was unexpected.

[4] = Solubility screen in two simple vehicles, pH 7.4; conditions: for pH of the formulation / Actual Concentration: pH 7.4; for Actual Concentration: 5 min vortexing
[5] = Concentration of benzyl atropine in surfactant mixtures; format: physicochemical
[6] = molecular target: T2, M1 muscarinic receptor (Homo sapiens, UniProt P11229); test: Muscarinic receptor radioligand displacement binding, M1
T2 sequence (P11229 1-460): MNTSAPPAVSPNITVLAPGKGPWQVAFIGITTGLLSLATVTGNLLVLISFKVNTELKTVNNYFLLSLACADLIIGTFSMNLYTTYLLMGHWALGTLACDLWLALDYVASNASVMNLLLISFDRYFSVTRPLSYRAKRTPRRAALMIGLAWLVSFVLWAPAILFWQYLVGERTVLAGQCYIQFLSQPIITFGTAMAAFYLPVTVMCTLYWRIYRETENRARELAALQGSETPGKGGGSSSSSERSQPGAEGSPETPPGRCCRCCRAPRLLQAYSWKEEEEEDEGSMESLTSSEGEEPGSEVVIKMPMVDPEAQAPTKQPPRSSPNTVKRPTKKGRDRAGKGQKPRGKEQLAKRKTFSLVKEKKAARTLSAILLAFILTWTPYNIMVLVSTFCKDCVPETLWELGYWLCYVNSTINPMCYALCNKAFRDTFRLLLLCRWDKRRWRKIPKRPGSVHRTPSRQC

[7] = HPβCD as a solubilizer for benzyl atropine; format: physicochemical; conditions: pH 3.1
[8] = molecular target: M3 muscarinic receptor (Homo sapiens, UniProt P20309); test: Muscarinic receptor radioligand displacement binding, M3
[9] = tested on: form deprivation-induced myopia (FDM); test: Form deprivation-induced myopia (FDM) chick model; format: in vivo
[10] = Solubilizing mixtures with citrate and acetate buffers; conditions: for Actual Conc. / Final pH: 7.0% PEG-40 Stearate, 5.0% PEG-35 Castor Oil
[11] = 0.78% Sodium Chloride in 30 mM Acetate Buffer, pH 4.55
[12] = 3.5% PEG-400, 0.46% Sodium Chloride in 30 mM Acetate Buffer, pH 4.62
[13] = 3.5% PEG-400, 5.0% PEG-35 Castor Oil, 0.37% Sodium Chloride in 30 mM Acetate Buffer, pH 4.67
[14] = 5.0% PEG-35 Castor Oil, 0.81% Sodium Chloride in 30 mM Acetate Buffer, pH 4.57
[15] = 7.0% PEG-40 Stearate, 0.58% Sodium Chloride in 30 mM Acetate Buffer, pH 4.64
[16] = 7.0% PEG-40 Stearate, 0.65% Sodium Chloride in 5 mM Phosphate Buffer/30 mM Acetate Buffer
[17] = 0.3% Tyloxapol in Phosphate Buffer, pH 2.8
[18] = 2.0% Poloxamer 407 in Phosphate Buffer, pH 2.8
[19] = 4.0% Tween 80 in Phosphate Buffer, pH 2.9
[20] = 5.0% PEG-35 Castor Oil in Acetic Acid Buffer, pH 2.8
[21] = 5.0% PEG-35 Castor Oil in Phosphate Buffer, pH 2.8
[22] = 7.0% PEG0-40 Stearate in Phosphate Buffer, pH 3.0
[23] = 20% DMSO in Phosphate Buffer, pH 2.7
[24] = 50% Glycerol in Phosphate Buffer in Phosphate Buffer, pH 2.5
[25] = 50% Propylene Glycol in Phosphate Buffer, pH 2.9
[26] = 0.43% Sodium Chloride, 10.0% HPβCD in 20 mM Phosphate Buffer
[27] = 2.21% Mannitol, 10.0% HPβCD in 20 mM Phosphate Buffer
[28] = 2.5% HPβCD in 20 mM Phosphate Buffer
[29] = 5.0% HPβCD in 20 mM Phosphate Buffer
[30] = 10.0% HPβCD in 20 mM Phosphate Buffer
[31] = 20 mM Citrate Buffer, pH 3.0 before API, 5.0% PEG-400
[32] = 20 mM Citrate Buffer, pH 4.65 before API, 5.0% PEG-400
[33] = 30 mM Acetate Buffer, pH 4.38 before API, 3.5% PEG-400
[34] = 30 mM Acetate Buffer, pH 4.56 before API, 3.5% PEG-400
[35] = 30 mM Acetate Buffer, pH 5.11 before API, 5.0% PEG-400

Chain of M3 muscarinic receptor (P20309 whole entry): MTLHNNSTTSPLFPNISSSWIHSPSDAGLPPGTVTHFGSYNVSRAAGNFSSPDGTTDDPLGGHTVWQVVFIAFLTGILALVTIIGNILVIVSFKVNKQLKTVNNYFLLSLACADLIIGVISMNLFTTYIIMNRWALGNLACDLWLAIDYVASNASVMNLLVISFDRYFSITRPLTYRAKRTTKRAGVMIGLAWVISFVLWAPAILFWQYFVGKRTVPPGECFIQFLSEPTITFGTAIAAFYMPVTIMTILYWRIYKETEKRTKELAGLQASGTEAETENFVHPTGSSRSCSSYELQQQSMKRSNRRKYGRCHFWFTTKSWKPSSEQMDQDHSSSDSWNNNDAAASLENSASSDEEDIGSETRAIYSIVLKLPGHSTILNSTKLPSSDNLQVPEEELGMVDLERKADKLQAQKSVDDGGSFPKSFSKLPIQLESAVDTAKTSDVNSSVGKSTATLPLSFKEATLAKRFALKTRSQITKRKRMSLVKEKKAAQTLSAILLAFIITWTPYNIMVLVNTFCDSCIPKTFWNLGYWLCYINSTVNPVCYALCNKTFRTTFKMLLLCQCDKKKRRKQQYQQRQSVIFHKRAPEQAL

## CN1C2CCC1CC(OC(=O)C(CO)(Cc1ccccc1)c1ccccc1)C2 (racemic) [Benzyl Atropine, benzyl atropine]
[1]; 50% Propylene Glycol in 30 mM Phosphate Buffer, pH 7.4
  Actual Concentration: 1.85 mg/g
[1]; PEG-400 (neat)
  Actual Concentration: 8.01 mg/g
  drug solubility: 0.8%
[1]; Polypropylene Glycol (neat)
  Actual Concentration: 7.86 mg/g
[1]; Propylene Glycol (neat)
  Actual Concentration: 6.96 mg/g
[2]
  Ki: 0.6 µM
  binding to the receptor (in words): bind weakly
[3]; [11]
  Actual Concentration: 0.92 mg/g
  Final Osmolality: 263.5 mOsm/kg
  Final pH: 7.2
[3]; [12]
  Actual Concentration: 1.79 mg/g
  Final Osmolality: 287 mOsm/kg
  Final pH: 7.1
[3]; [13]
  Actual Concentration: 3.95 mg/g
  Final Osmolality: 293 mOsm/kg
  Final pH: 7.4
[3]; [14]
  Actual Concentration: 3.02 mg/g
  Final Osmolality: 306.5 mOsm/kg
  Final pH: 7.5
[3]; [15]
  Actual Concentration: 4.62 mg/g
  Final Osmolality: 264.5 mOsm/kg
  Final pH: 7.4
[3]; [16]
  Actual Concentration: 5.32 mg/g
  Final Osmolality: 291 mOsm/kg
  Final pH: 6.4
[3]; in the presence of 3.5% PEG-400, 5% PEG-35 castor oil, and 0.37% NaCl
  highest achievable concentration that did not re-precipitate: 3.9 mg/g
[4]; 30 mM Phosphate Buffer
  pH of the formulation: 7.9
  Actual Concentration: 0.29 mg/g
[4]; Phosphate Buffered Saline
  pH of the formulation: 8.0
  Actual Concentration: 0.30 mg/g
[4]; both vehicles: 30 mM phosphate buffer pH 7.4 and phosphate-buffered saline pH 7.4
  dissolution in vehicle (in words): did not entirely dissolve
[5]; [17]
  Actual Concentration: 0.19 mg/g
  pH after API Dissolution: 7.3
[5]; [18]
  Actual Concentration: 0.20 mg/g
  pH after API Dissolution: 7.4
[5]; [19]
  Actual Concentration: 0.58 mg/g
  pH after API Dissolution: 7.3
[5]; [20]
  Actual Concentration: 1.16 mg/g
  pH after API Dissolution: 3.1
[5]; [21]
  Actual Concentration: 0.68 mg/g
  pH after API Dissolution: 7.3
[5]; [22]
  Actual Concentration: 0.47 mg/g
  pH after API Dissolution: 7.4
[5]; [23]
  Actual Concentration: 0.30 mg/g
  pH after API Dissolution: 8.1
[5]; [24]
  Actual Concentration: 0.84 mg/g
  pH after API Dissolution: 7.6
[5]; [25]
  Actual Concentration: 1.56 mg/g
  pH after API Dissolution: 8.3
[6]
  Ki: 0.83 µM
  binding to the receptor (in words): bind weakly
[7]; [26]
  Actual Concentration: 5.92 mg/g
  Final pH: 5.8
[7]; [27]
  Actual Concentration: 5.23 mg/g
  Final pH: 5.7
[7]; [28]
  Concentration Dissolved: 3.53 mg/g
  Final pH: 7.1
[7]; [29]
  Concentration Dissolved: 4.16 mg/g
  Final pH: 7.0
[7]; [30]
  Concentration Dissolved: 4.51 mg/g
  Final pH: 7.1
[8]
  binding to the receptor (in words): not to bind at all
[9]; at approximately ten-fold lower concentration than atropine, FIG. 1 Panel B (24 nmol vs 240 nmol)
  efficacy compared with atropine in FDM chick model: as effective as atropine
[9]; intravitreal injection day 2 and day 4, readout day 5, FIG. 1 Panel A
  efficacy in FDM chick model: effective
[9]; with respect to 5% v/v ethanol solution, FIG. 1 Panel A
  change in refractive error (goggled eye value minus ungoggled eye value): significantly decreased
[10]; [31]
  Actual Conc.: 5.73 mg/g
  Final pH: 4.4
[10]; [32]
  Actual Conc.: 2.38 mg/g
  Final pH: 5.8
[10]; [33]
  Actual Conc.: 5.49 mg/g
  Final pH: 4.9
[10]; [34]
  Actual Conc.: 5.42 mg/g
  Final pH: 5.5
[10]; [35]
  Actual Conc.: 3.59 mg/g
  Final pH: 7.7
[10]; from stability assessment, compound crashed out of solution over storage
  saturated solubility limit: ~5 mg/g
